Experimental data as given in the METLIN SMRT retention time set (Domingo-Almenara et al. 2019).

Experiment: gradient 5% acetonitrile 3 min, to 50% in 2 min, to 85% in 15 min, held 3 min, 100 µL/min
Details: column: Zorbax Extend-C18 2.1 x 50 mm; eluents: water / acetonitrile, 0.1% formic acid
Summary of the method: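 Standards, all pure, were combined into mixtures of ~100 molecules and run at 100 μL/min on a Zorbax Extend-C18 column (2.1 × 50 mm, 1.8 μm) with water and acetonitrile, each containing 0.1% formic acid. A coupled quadrupole time-of-flight mass spectrometer operated in positive and negative ionization mode. Retention time values come from computationally picked adduct peaks, each inspected manually.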

SMILES	RP-LC retention time [s]
Cc1nnc(SCCC(=O)Nc2nc(-c3ccccc3)ns2)s1	890
CSc1sc(C)cc1-c1nsc(=O)o1	1110
CCC(CC)C(=O)N1C[C@H](c2nc(-c3ccncc3)no2)[C@@H](C)C1	793
O=C1CCCN1CCCN1C(=O)[C@H]2CN(Cc3cccc(Cl)c3F)C[C@H]2C1=O	660
COc1cccc(C2Cn3nnc(-c4nc(-c5ccccc5)no4)c3CO2)c1 (stereo not drawn)	1130
CNCc1ccc(-c2cc(Cl)cc(Cl)c2)o1	658
CC(=O)c1cccc(NC(=O)Cn2cccc2-c2nc(-c3ccc4c(c3)OCO4)no2)c1	951
Cc1ccc(NS(=O)(=O)c2cc(-c3[nH]ncc3C(=O)N3CCCCC3)oc2C)c(F)c1	806
Cc1ccc(C)c(NC(=O)Nc2ccc3nnc(C)n3c2)c1	695
Cc1ccccc1CC(=O)N1CCCC(COc2ccc(C(=O)N3CCOCC3)cc2)C1 (stereo not drawn)	811
Fc1ccccc1-c1nc(-c2ccc3nncn3c2)no1	785
COc1ccccc1CNS(=O)(=O)c1cc2c(s1)CCN(C(=O)C1CCC1)C2	877
c1nn2cnnc2cc1N1CCN(Cc2csc3c2CCCC3)CC1	609
CN1CCC(NC(=O)c2n[nH]c3c2CN(C(=O)c2ccccc2)CC3)CC1	568
Cc1ccc(-n2nc(C)c3nc(CCC(=O)N4CCN(c5ccccn5)CC4)c(=O)n(C)c32)cc1	627
CCOc1ccccc1CNC(=O)C1CCCN(c2nn3c(=O)c4c(nc3s2)CCCC4)C1 (stereo not drawn)	831
CC(=O)N1CCCc2cc(S(=O)(=O)CCC(=O)Nc3ccc(Br)cc3F)ccc21	824
Cc1ccccc1CNC(=O)C1CCCN1S(=O)(=O)c1cc2c(cc1Cl)NC(=O)CO2 (stereo not drawn)	786
COc1ccc(OC)c(NC(=O)NCCc2nc3cccnc3n2C2CCCC2)c1	706
O=C(NC1CCCCCCC1)c1nnc(-c2ccc(S(=O)(=O)N3CCOCC3)cc2)o1	991
O=C(O)c1cccc(Nc2c(-c3ccccc3)nc3cnccn23)c1	697
Cc1ccc(NS(=O)(=O)c2ccc(-c3nnc(C4CCC4)o3)o2)cc1F	962

SMILES	RP-LC retention time [s]
Cc1ccn2cc(-c3ccc(C)c(NS(=O)(=O)c4ccccc4)c3)nc2c1	655
CCC(CN1CCOCC1)NC(=O)c1c2c(nc3ccccc13)C(=O)N(C1CCCCC1)C2 (stereo not drawn)	610
CCC(=O)N1CCc2cc(N3CC(C(=O)NCc4ccc(Cl)cc4)CC3=O)ccc21 (stereo not drawn)	637
Cc1nn(C(C)C(=O)Nc2cccc(F)c2)c(=O)c2c(-n3cccc3)n(-c3ccccc3)nc12 (stereo not drawn)	1120
Cc1noc(C2CN(C(=O)Cc3ccccc3)CC23CCN(C)CC3)n1 (stereo not drawn)	920
CC1Oc2ccccc2OC1C(=O)NCCn1nc(-c2ccco2)ccc1=O (stereo not drawn)	722
COc1ccc(CNC(=O)c2ccc3c(=O)n(Cc4ccccc4)c(N4CCCC4)nc3c2)cc1	956
CCN(CC)S(=O)(=O)c1ccc(NC(=O)c2ccc3c(=O)n4c(nc3c2)CCCCC4)cc1	875
COc1ccc(Cl)cc1NC(=O)Cn1cnc2nc3c(cc2c1=O)CCCC3	798
COc1cccc(CNC2=NCCNC23CCN(S(=O)(=O)c2ccc(C(C)(C)C)cc2)CC3)c1	837
CCn1ccc2oc(C)c(C(=O)N3CCN(c4cccc(Cl)c4)CC3)c2c1=O	896
COC(=O)c1ccccc1NC(=O)c1ccc(-n2ccnc2)nn1	666
CC(C)CCNC(=O)C1CCCN(c2cc(=O)n(C)c(=O)n2C)C1 (stereo not drawn)	677
Cc1nc([C@@H]2CCCN2C(=O)CCc2ccccc2)n[nH]1	634
O=C(C1CCN(c2ccc(-c3cccs3)nn2)CC1)N1CCN(c2ccccn2)CC1	568
CCC(NC(=O)C1CCN(c2cncnc2N2CCOCC2)CC1)c1ccc(OC)cc1 (stereo not drawn)	643
CCCCOc1ccc(C(=O)NC2(c3nc(CC)no3)CCCCC2)cc1	1160
Cc1ccc(-c2noc(Cn3c(=O)n(-c4ccccc4C)c(=O)c4sccc43)n2)cc1C	1110
Cc1ccc(Oc2cccc(C(=O)NCCNc3cc(-n4cccn4)ncn3)c2)nn1	615
O=C(Cn1cccc(-c2nc(-c3ccc(Cl)cc3)no2)c1=O)NC1CCCC1	881
CS(=O)(=O)N1CC[C@H]2CN(Cc3cn[nH]c3-c3ccc(F)cc3)C[C@@]2(CF)C1	576
Cc1ccc(CN2CCN(C3CCN(S(=O)(=O)c4ccc(F)c(Cl)c4)CC3)C(=O)C2=O)cc1	926

SMILES	RP-LC retention time [s]
Cc1ccc(NC(=O)Cn2nc3n(c2=O)CCCCC3)cc1F	734
COCCn1cc(CCNC(=O)Nc2ccc(C)cc2Cl)c2cccnc21	790
CCc1nncn1C1CCN(S(=O)(=O)c2ccc(F)cc2)CC1	676
CCc1ccc(NC(=O)Cn2c(N)nc(CC)c(C)c2=O)cc1	639
C=CCNC(=O)C1CCCN(C(=O)Nc2ccc(NC(=O)Nc3ccc(CC)cc3)cc2)C1 (stereo not drawn)	780
CSc1ccccc1NC(=O)c1cc(=O)c(OCc2ccc(F)cc2)co1	859
CN1CCN(S(=O)(=O)c2ccc(Cl)c(-c3nnc(-c4ccccc4)o3)c2)CC1	681
CC(C)CNC(=O)CCC1CCN(c2cc(NC3CC3)ncn2)CC1	615
COc1ccc(NC(=O)Nc2nccn(-c3ccc(C(C)C)cc3)c2=O)cc1OC	1010
Cc1ccc(S(=O)(=O)N2CCCCC2c2nncn2C)cc1F (stereo not drawn)	736
O=C(NCc1ccc(Br)cc1)C1CCN(c2cnc3nccnc3c2)CC1	746
COc1ccc(N2C=C(C(=O)N3CCOCC3)S(=O)(=O)c3ccccc32)cc1OC	695
CC(C)N1C(=O)c2cccnc2Sc2cc(NC(=O)Cc3cccc(F)c3)ccc21	876
COc1ccc(CNS(=O)(=O)c2ccc(-c3c(C)noc3C)cc2)cc1	886
CCn1cc(CCNS(=O)(=O)c2cccc(C#N)c2)c2cccnc21	733
COCCNC(=O)c1nc(-c2ccnc(N3CCCCC3)c2)no1	612
O=C(CCCS(=O)(=O)c1ccc(F)cc1)Nc1nnc(-c2ccno2)o1	637
COc1ccc(NC(=O)Cn2nc3cc(C)nc(Nc4cc(C)cc(C)c4)n3c2=O)cc1	869
CCN1CCN(S(=O)(=O)c2cc(-c3nnc(C4CCCC4)o3)co2)CC1	637
Cc1cc(C)cc(Oc2cc(N3CCC(C(=O)NCCc4ccccc4)CC3)ncn2)c1	986
COCCn1c(C2CCN(C(=O)c3cccc(Cl)c3)C2)nc2ccncc21 (stereo not drawn)	561
O=C1NC2(CCN(C(=O)NCCc3ccccc3)CC2)Nc2c(Cl)cccc21	773

SMILES	RP-LC retention time [s]
c1ccc(CCNc2nc(-c3ccccc3)no2)cc1	1000
CCN1C(=O)COc2ccc(-c3csc(NC(=O)c4ccccc4)n3)cc21	952
Cc1ccc(-c2cc3n(n2)CCCN(C(=O)c2ccccn2)C3)cc1	766
COCCN1CCC(N2CCCN(C(=O)c3ccc(F)c(Cl)c3)CC2)C1=O (stereo not drawn)	573
CCn1ccc(-c2nc(-c3ccc4c(c3)nnn4CCN3CCCCC3)no2)n1	623
COc1cccc(CC(=O)N2CCC3(CC2)NCc2ccccc2-n2ccnc23)c1	572
COc1cccc(NC(=O)N2CCN(c3cc(C)nc(Nc4ccc(C)cc4)n3)CC2)c1	687
Fc1cccc(CNc2nnc(-c3nnc(C4CC4)o3)c3ccccc23)c1	933
Cc1ccc(NC(=O)NCCc2cn(CC(C)C)c3ncccc23)cc1C	858
CC(C)Oc1ccc(-c2noc(Cn3cnc4c(oc5ccccc54)c3=O)n2)cc1	1060
CCc1nc2nccc(-c3ccc(OC)cc3)n2n1	784
O=C(Nc1cc(-c2ccsc2)no1)c1ccc(Cl)cc1	1010
Cc1noc([C@@H]2CN(C(=O)Cc3c(C)noc3C)C[C@H]2C(N)=O)n1	593
Cc1cc(C)cc(Nc2nc(C)cc(=O)n2CC(=O)NC(C)CCc2ccccc2)c1 (stereo not drawn)	1030
CCOc1ccc2nc(NC(=O)C3CCN(C(=O)c4ccc(-c5noc(C)n5)cc4)CC3)sc2c1	875
CC1=C(C(=O)N2CC(c3noc(COc4ccc(C)cc4)n3)C2)C2(CCCCC2)OC1=O	1010
CCOc1ccc2nc(Nc3ncc4c(n3)CCCC4=O)nc(C)c2c1	588
COc1ccc(-n2c(=O)n(C)c(=O)c3cc(C(=O)NCc4ccc(F)cc4)cnc32)cc1	849
O=C(Cc1csc(-c2ccccc2F)n1)NCCc1c[nH]c2ccccc12	904
COCCOCc1nc(C2CCN(C(=O)NC3CCCCC3)CC2)no1	709
Cc1noc(C)c1CNC(=O)Cc1ccccc1F	696
Cc1nc2ccc(NC(=O)Cc3ccc4c(c3)OCO4)cc2s1	716
